According to US20080085884A1, “Melanin Concentrating Hormone Receptor-1 Antagonist Pyridinones” (Pfizer Inc, priority 2006, published 2008):

Molecular target: T1, human MCHR1 (Homo sapiens, UniProt Q99705)
T1 construct: host or cells: CHO
Test: Cyclic AMP assay (MCHR-1 functional antagonism)
Assay type: cell-based
Conditions: CHO cells stably expressing human MCHR1; cAMP accumulation with 25 uM forskolin and 0.2 nM MCH, 90 min; Ki from IC50 by Cheng-Prusoff; read-out: MCHR-1 functional Ki
Description: CHO cell lines stably expressing the human MCHR1 (Euroscreen, Brussels, Belgium) were maintained in DMEM containing Glutamax (Invitrogen, Carlsbad, Calif.), 10% FBS, 400 ug/ml Geneticin.
Cyclic AMP assays. CHO cells stably expressing the human MCHR1 receptors were collected and resuspended at a density of 4.0×10^6 cells/ml in F12 (Hams) media and seeded (20,000 cells per well) into 384-well, solid white Greiner assay plates. […] Cells were incubated at 37° C./5% CO2 for 90 minutes and cAMP accumulation subsequently determined by DiscoveRx Hithunter c-AMP II Assay kit (GE Healthcare, Buckinghamshire, UK) in accordance with manufactures instructions. Luminescence was measured on a LEADseaker imaging system (GE Healthcare, Buckinghamshire, UK). IC50 values were calculated from dose-response data fit using an in-house computer graphics and statistics program.

T1 sequence (Q99705 whole entry): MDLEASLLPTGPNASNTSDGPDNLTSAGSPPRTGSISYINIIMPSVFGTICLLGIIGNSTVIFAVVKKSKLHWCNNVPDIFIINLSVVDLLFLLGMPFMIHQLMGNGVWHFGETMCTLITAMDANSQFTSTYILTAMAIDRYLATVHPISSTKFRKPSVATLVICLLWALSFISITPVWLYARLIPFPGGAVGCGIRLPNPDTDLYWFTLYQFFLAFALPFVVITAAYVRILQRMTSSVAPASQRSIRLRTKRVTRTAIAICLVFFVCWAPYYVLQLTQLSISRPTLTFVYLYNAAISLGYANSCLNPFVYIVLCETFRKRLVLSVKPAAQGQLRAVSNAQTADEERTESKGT

| SMILES | Ki [nM] |
| --- | --- |
| CCN1CCN(c2ccc(-n3ccc(OCc4ccccc4)cc3=O)cn2)CC1 [Example 7, 4-(Benzyloxy)-6′-(4-ethylpiperazin-1-yl)-2H-1,3′-bipyridin-2-one] | 87.1 |
| CC(C)N(C)[C@H]1CCN(c2ccc(-n3ccc(OCc4ccccc4)cc3=O)cn2)C1 [Example 60] | 2.94 |
| O=c1cc(OCc2ccc(F)cc2)ccn1-c1ccc(N2C[C@@H]3CN(C4CCC4)C[C@@H]3C2)nc1 [Example 208] | 2.72 |
| O=c1cc(OCc2ccc(F)cc2)ccn1-c1ccc(N2CCC2)nc1 [Example 90] | 96.7 |
| CNC1CN(c2ccc(-n3ccc(OCc4ccc(F)cc4)cc3=O)cn2)C1 [Example 112] | 184 |
| CC(C)C(=O)N1C[C@@H]2CN(c3ccc(-n4ccc(OCc5ccc(F)cc5)cc4=O)cn3)C[C@@H]2C1 [Example 170] | 29.1 |
| COC(=O)N[C@H]1CCN(c2ccc(-n3ccc(OCc4ccc(Cl)cc4)cc3=O)cn2)C1 [Example 194] | 46.6 |
| O=C1CCN(c2ccc(-n3ccc(OCc4ccccc4)cc3=O)cn2)C1 [Example 30, 4-(Benzyloxy)-6′-(3-oxopyrrolidin-1-yl)-2H-1,3′-bipyridin-2-one] | 2470 |
| CC1(O)CCN(c2ccc(-n3ccc(OCc4ccccc4)cc3=O)cn2)C1 (centres unmarked) [Example 240] | 77.5 |
| CC(=O)N(C)C1CCN(c2ccc(-n3ccc(OCc4ccccc4)cc3=O)cn2)CC1 [Example 165] | 29.2 |
| COCC1CCCN(c2ccc(-n3ccc(OCc4ccccc4)cc3=O)cn2)CC1 (centres unmarked) [Example 233] | 17.6 |
| CC1(N)CCN(c2ccc(-n3ccc(OCc4ccccc4)cc3=O)cn2)C1 (single isomer, unassigned) [Example 17b, 6′-(3-Amino-3-methylpyrrolidin-1-yl)-4-(benzyloxy)-2H-1,3′-bipyridin-2-one] | 38.1 |
| N[C@H]1CCN(c2ccc(-n3ccc(OCc4ccccc4)cc3=O)cn2)C1 [Example 55, 6′-[(3S)-3-aminopyrrolidin-1-yl]-4-(benzyloxy)-2H-1,3′-bipyridin-2-one] | 3.66 |
| O=c1cc(OCc2ccc(Cl)c(Cl)c2)ccn1-c1ccc(N2CC[C@@H](O)C2)nc1 [Example 204] | 330 |
| O=c1cc(OCc2ccc(Cl)cc2)ccn1-c1ccc(N2CC[C@H](O)C2)nc1 [Example 29, 4-[(4-Chlorobenzyl)oxy]-6′-[(3S)-3-hydroxypyrrolidin-1-yl]-2H-1,3′-bipyridin-2-one] | 23.7 |
| CCN(C(=O)OC(C)(C)C)[C@@H]1CCN(c2ccc(-n3ccc(OCc4ccccc4)cc3=O)cn2)C1 [Example 23a, tert-Butyl {(3R)-1-[4-(benzyloxy)-2-oxo-2H-1,3′-bipyridin-6′-yl]pyrrolidin-3-yl}ethylcarbamate] | 15.7 |
| COC(=O)N(C)[C@@H]1CCN(c2ccc(-n3ccc(OCc4ccc(F)cc4)cc3=O)cn2)C1 [Example 179] | 18.9 |
| CN(C(=O)OC(C)(C)C)[C@@H]1CCN(c2ccc(-n3ccc(OCc4ccc(Cl)cc4)cc3=O)cn2)C1 [Example 197] | 7.7 |
| O=c1cc(OCc2ccc(Cl)cc2F)ccn1-c1ccc(N2CC[C@@H](O)C2)nc1 [Example 147] | 26.2 |
| N[C@@H]1[C@H]2CN(c3ccc(-n4ccc(OCc5ccccc5)cc4=O)cn3)C[C@@H]12 [Example 217] | 11 |
| O=c1cc(OCc2ccccc2)ccn1-c1ccc(N2CCC(N3CCCC3)C2)nc1 (centres unmarked) [Example 63] | 12.1 |
| CCC1CN(c2ccc(-n3ccc(OCc4ccccc4)cc3=O)cn2)CCN1 (centres unmarked) [Example 72] | 74.6 |
| CC(C)C1(O)CCN(c2ccc(-n3ccc(OCc4ccccc4)cc3=O)cn2)C1 (centres unmarked) [Example 45] | 270 |
| O=c1cc(OCc2ccccc2)ccn1-c1ccc(N2CCC3(CCNC3)C2)nc1 (centres unmarked) [Example 219] | 8.45 |
| O=c1cc(OCc2ccc(F)c(Cl)c2)ccn1-c1ccc(N2CC[C@@H](O)C2)nc1 [Example 206] | 250 |

| SMILES | Ki [nM] |
| --- | --- |
| O=c1cc(OCc2ccc(F)cc2)ccn1-c1ccc(N2CC[C@@H](O)C2)nc1 [Example 113] | 50.4 |
| O=c1cc(OCc2ccccc2)ccn1-c1ccc(N2CC[C@@H](O)C2)nn1 [Example 157] | 3160 |
| CC(=O)N1C[C@@H]2CN(c3ccc(-n4ccc(OCc5ccccc5)cc4=O)cn3)C[C@@H]2C1 [Example 158] | 49.8 |
| O=c1cc(OCc2ccccc2)ccn1-c1ccc(N2C[C@@H]3CN(C4CCC4)C[C@@H]3C2)nc1 [Example 210] | 4.56 |
| O=C1CCCN1[C@H]1CCN(c2ccc(-n3ccc(OCc4ccccc4)cc3=O)cn2)C1 [Example 27] | 71.4 |
| O=c1cc(OCc2ccc(Cl)c(F)c2)ccn1-c1ccc(N2CC[C@@H](O)C2)nc1 [Example 146] | 60.1 |
| NC1CCN(c2ccc(-n3ccc(OCc4ccccc4)cc3=O)cn2)CC1 [Example 214] | 106 |
| O=c1cc(OCc2ccc(F)cc2)ccn1-c1ccc(N2CC(N3CCCC3)C2)nc1 [Example 95] | 147 |
| CNC1(C)CCN(c2ccc(-n3ccc(OCc4ccccc4)cc3=O)cn2)C1 (single isomer, unassigned) [Example 18b, 4-(Benzyloxy)-6′-[3-methyl-3-(methylamino)pyrrolidin-1-yl]-2H-1,3′-bipyridin-2-one] | 18.3 |
| O=c1cc(OCc2ccccc2)ccn1-c1ccc(N2CC3CCC(C2)N3)nc1 [Example 220] | 513 |
| CC(C)C(=O)N1CCN(c2ccc(-n3ccc(OCc4ccccc4)cc3=O)cn2)CC1 [Example 166] | 1210 |
| CN[C@H]1CCN(c2ccc(-n3ccc(COc4ccccc4)cc3=O)cn2)C1 [Example 122] | 110 |
| CCO[C@@H]1CCN(c2ccc(-n3ccc(OCc4ccccc4)cc3=O)cn2)C1 [Example 39] | 42 |
| O=c1cc(OCc2ccccc2)ccn1-c1ccc(N2C[C@H]3C[C@@H]2CN3)nc1 [Example 231] | 752 |
| O=c1cc(OCc2ccccc2)ccn1-c1ccc(N2CCC(N3CCC3)C2)nc1 (centres unmarked) [Example 61] | 18.7 |
| O=c1cc(OCc2ccc(F)cc2)ccn1-c1ccc(N2CC(N3CCC3)C2)nc1 [Example 96] | 195 |
| CN[C@H]1CCN(c2ccc(-n3ccc(OCc4ccc(F)c(F)c4)cc3=O)cn2)C1 [Example 150] | 3.47 |
| N[C@H]1CCN(c2ccc(-n3ccc(OCc4ccc(F)cc4)cc3=O)cn2)C1 [Example 118] | 11.5 |
| CN(C(=O)OC(C)(C)C)[C@H]1CCN(c2ccc(-n3ccc(OCc4ccccc4)cc3=O)nn2)C1 [Example 156] | 230 |
| CN(C)C(=O)C1CCN(c2ccc(-n3ccc(OCc4ccccc4)cc3=O)cn2)C1 (single isomer, unassigned) [Example 25a, 1-[4-(Benzyloxy)-2-oxo-2H-1,3′-bipyridin-6′-yl]-N,N-dimethylpyrrolidine-3-carboxamide] | 71.1 |
| O=c1cc(OCc2ccccc2)ccn1-c1ccc(N2CCCNCC2)nc1 [Example 216] | 78 |
| CNC1CCN(c2ccc(-n3ccc(OCc4ccccc4)cc3=O)cn2)CC1 [Example 230] | 69.8 |
| COC(=O)NC1CN(c2ccc(-n3ccc(OCc4ccc(F)cc4)cc3=O)cn2)C1 [Example 193] | 196 |
| CCN[C@@H]1CCN(c2ccc(-n3ccc(OCc4ccccc4)cc3=O)cn2)C1 [Example 19, 4-(Benzyloxy)-6′-[(3R)-3-(ethylamino)pyrrolidin-1-yl]-2H-1,3′-bipyridin-2-one] | 6.78 |
| NC1CN(c2ccc(-n3ccc(OCc4ccc(F)cc4)cc3=O)cn2)C1 [Example 35] | 232 |
